Literature values, collected in patent publication US10674699B2, “Endophyte enhanced seedlings with increased pest tolerance” (priority 2006, dated 2020).

Test system: spruce budworm cells
Settings: Can J Chem 81: 284; cited from earlier work

Substance: trihydroxy-4-1′-hydroxyethyl) isocoumarin
- toxicity to spruce budworm cells: ^camong others; a new compound trihydroxy-4-1′-hydroxyethyl) isocoumarin also toxic to spruce budworm cells (Can J Chem 81: 284)
